Assay results reported in patent US4631292A, “1,3-dioxane derivatives, method of their synthesis and anti-peptic ulcer agent” (Kotobuki Seiyaku Co., Ltd., priority 1983, dated 1986).

Assays:
[1] = tested on: aspirin-induced pylorus-ligated rats; experiment: Aspirin-induced ulcer in pylorus-ligated rats (method of S. Okabe); type: in vivo; settings: oral dose 500 mg/kg
Description: (1) The effect of the compounds of the invention is examined by using aspirin-induced pylorus-ligated rats according to the methods of S. Okabe (Oyo-Yakuri 9 (1), 31-37 1975). The test compounds are given orally at a dose of 500 mg./kg.

ethanol induced ulcer = experiment: Ethanol induced ulcer (method of L. Robert, modified); type: in vivo; settings: ethanol/HCl induced ulcer, rats; for ulcer index (mm): 30 min before ethanol, 1 hour after ethanol
Description: (2) The effect on ethanol induced ulcer is examined according to the method of L. Robert (Gastroenterology 77,433-443, 1979) with some modification. Rats are fasted for 24 hrs. and after 30 min. of the oral test drug administration, 1 ml. of 60% ethanol of 150 mM hydrochloric acid solution is given.
Exactly 1 hour later, the animals are sacrificed and the stomach is removed to examine their ulcer index.

Compound	% inhibition [1] [%]	ulcer index (mm) ± S.E. [1] [mm]	% inhibition (ethanol induced ulcer; oral dose 100 mg/kg) [%]	ulcer index (mm) (ethanol induced ulcer; oral dose 100 mg/kg)	% inhibition (ethanol induced ulcer; oral dose 500 mg/kg) [%]	ulcer index (mm) (ethanol induced ulcer; oral dose 500 mg/kg)
CC(C)=CCCC1OCCC(C)O1 (centres unmarked) [Compound 1, 2-(4-methyl-3-pentene)-6-methyl-1,3-dioxane]	50.6	11.0 ± 2.98				
CC(C)=CCCC(C)CC1OCCC(C)O1 (centres unmarked) [Compound 2, 2-(2,6-dimethyl-5-heptene)-6-methyl-1,3-dioxane]	35.9	27.8 ± 7.1				
CC(C)=CCCC1(C)OCCC(C)O1 (centres unmarked) [Compound 5, 2-(4-methyl-3-pentenyl)-2-methyl-4-methyl-1,3-dioxane]	88.1	2.2 ± 0.8	59.7	27.1 ± 7.3	95.1	3.3 ± 1.2
CC1CCC(C(C)C)C2(C1)OCCC(C)O2 (centres unmarked) [Compound 6, spiro[2isopropyl-5-methyl-cyclohexane-1,2'-4'-methyl 1',3']dioxane]	53.9	10.3 ± 4.16				
CC(C)=CCCC1(C)OC(C)CC(C)O1 (centres unmarked) [Compound 11, 2-(4-methyl-3-pentenyl)-2-methyl-4,6-dimethyl-1,3-dioxane]	33.7	14.5 ± 5.12				
